Reference: patent publication US20240353410A1, “FRET ENZYMATIC SUBSTRATE AND USES THEREOF IN LIVER CANCER” (URTESTE S.A., priority 2021, published 2024)
Several values for one entry are separate records, joined by “and”; a condition that tells them apart may be missing. Equal values may be shown once. *1 amine or outer side, *2 acyl side, *3 side chain or, on linkers, in order; H or OH if unused. Where no end group is shown, it is not given here. [ ]: non-standard residue; d: D form. Benzoyl(5-NH,2-NO2) = O=C(c1cc(N[*:1])ccc1[N+](=O)[O-])[*:2]; 2Abz = Nc1ccccc1C(=O)O

Legend:
Type in all cases: biochemical, human
[1] = tested on: proteolytic enzymes in urine from a subject suffering from liver cancer; test: Hydrolysis of the chromogenic substrate in urine from subjects with liver cancer (absorbance at 405 nm); settings: for Results of absorbance analysis (increase in absorbance, 405 nm): 37° C., 60 minutes, pH 8.0
Protocol: (§1) The activity of the novel compounds according to the invention was studied in a group of 20 subjects diagnosed with liver cancer using the representative compound according to the invention. […] The remaining compounds according to the invention are characterized by the analogous mechanism of action. For this purpose, the representative compound according to the invention, ABZ^1-Lys^2-Ser^3-Ser^4-Asp^5-ANB^6-NH2, was dissolved in dimethyl sulfoxide (at a concentration of 0.5 mg/mL) and then 50 μL of the solution was mixed with 120 μL of a buffer (200 mM Tris-HCl, pH 8.0) and 80 μL of urine from a subject suffering from liver cancer. The measurement was performed on a 96-well plate designed for measuring absorbance and each sample was analysed in triplicate at the temperature of 37° C. The duration of the measurement was 60 minutes. During the measurement, the wavelength characteristic for the chromophore (ANB-NH2) being released was monitored at the wavelength 405 nm (range 380-430 nm).
The observed magnitude of increase in absorbance in time is different for each of the examined samples.
Such a result may be due to the difference in the activity as well as the amount of enzymes responsible for the enzymatic cleavage (proteolysis). […] The result indicates the […] of proteolytic enzymes characteristic of liver cancer.

[2] = tested on: urine samples taken from healthy persons; test: Hydrolysis of the chromogenic substrate in urine from healthy subjects (absorbance at 405 nm); settings: for Results of absorbance analysis (increase in absorbance, 405 nm): triplicate
[3] = tested on: urine samples from patients with another neoplastic disease; test: Cleavage selectivity: substrate incubated with urine from patients with other cancers; settings: for Measurement 1-3 (increase in absorbance): urine, triplicate
Protocol: as §1
Furthermore, the dependence of the cleavage selectivity of the substrate, i.e. the compound according to the invention, on the cancer being examined, was studied. […] This indicates cleavage selectivity of the compounds according to the invention, which makes them suitable for the specific detection of enzymatic activity specific to liver cancer and specific diagnosis of liver cancer.

[4] = tested on: urine taken from a person diagnosed with liver cancer; test: RP HPLC analysis of substrate cleavage in urine with liver cancer; settings: randomly selected urine from a person diagnosed with liver cancer
[5] = tested on: enzyme in the studied material (urine); test: Dependence of substrate hydrolysis on reaction pH; settings: FIG. 4
Protocol: Furthermore, measurements concerning the dependence of the proteolytic activity of the representative compound according to the invention on the reaction pH were performed.

ABZ-Lys-Ser-Ser-Asp-ANB-NH2 ([2Abz]KSSD-{Benzoyl(5-NH,2-NO2)-NH2}) [chromogenic/FRET peptide substrate; ABZ is 2-aminobenzoic acid, ANB-NH2 is amide of 5-amino-2-nitrobenzoic acid]
Cleavage of the substrate in urine ([1]; all samples 1-20 from persons suffering from liver cancer): underwent cleavage | Results of absorbance analysis (increase in absorbance, 405 nm) ([1]; urine sample W1, liver cancer, triplicate): 0.03221 and 0.03351 and 0.02109 | Results of absorbance analysis (increase in absorbance, 405 nm) ([1]; urine sample W2, liver cancer, triplicate): 0.02276 and 0.02037 and 0.02884 | Results of absorbance analysis (increase in absorbance, 405 nm) ([1]; urine sample W4, liver cancer, triplicate): 0.02897 and 0.02718 and 0.02812 | Results of absorbance analysis (increase in absorbance, 405 nm) ([1]; urine sample W5, liver cancer, triplicate): 0.171 and 0.1445 and 0.1684 | Results of absorbance analysis (increase in absorbance, 405 nm) ([1]; urine sample W6, liver cancer, triplicate): 0.02035 and 0.01966 and 0.02513 | Results of absorbance analysis (increase in absorbance, 405 nm) ([1]; urine sample W8, liver cancer, triplicate): 0.0186 and 0.0199 and 0.01818 | Results of absorbance analysis (increase in absorbance, 405 nm) ([1]; urine sample W9, liver cancer, triplicate): 0.0313 and 0.02635 and 0.0275 | Results of absorbance analysis (increase in absorbance, 405 nm) ([1]; urine sample W10, liver cancer, triplicate): 0.04583 and 0.03322 and 0.03755 | Results of absorbance analysis (increase in absorbance, 405 nm) ([1]; urine sample W11, liver cancer, triplicate): 0.02091 and 0.01156 and 0.01536 | Results of absorbance analysis (increase in absorbance, 405 nm) ([1]; urine sample W12, liver cancer, triplicate): 0.03055 and 0.02126 and 0.0183 | Results of absorbance analysis (increase in absorbance, 405 nm) ([1]; urine sample W13, liver cancer, triplicate): 0.01583 and 0.01383 and 0.01431 | Results of absorbance analysis (increase in absorbance, 405 nm) ([1]; urine sample W14, liver cancer, triplicate): 0.00394 and 0.00525 and 0.00441 | Results of absorbance analysis (increase in absorbance, 405 nm) ([1]; urine sample W15, liver cancer, triplicate): 0.01622 and 0.01718 and 0.01233 | Results of absorbance analysis (increase in absorbance, 405 nm) ([1]; urine sample W16, liver cancer, triplicate): 0.01265 and 0.01251 and 0.00722 | Results of absorbance analysis (increase in absorbance, 405 nm) ([1]; urine sample W17, liver cancer, triplicate): 0.0012 and 0.0018 and 0.0015 | Results of absorbance analysis (increase in absorbance, 405 nm) ([1]; urine sample W18, liver cancer, triplicate): 0.01937 and 0.01539 and 0.01955 | Results of absorbance analysis (increase in absorbance, 405 nm) ([1]; urine sample W19, liver cancer, triplicate): 0.0091 and 0.0093 and 0.0089 | Results of absorbance analysis (increase in absorbance, 405 nm) ([1]; urine sample W20, liver cancer, triplicate): 0.1528 and 0.1867 and 0.1909 | Measurement 1-3 (increase in absorbance) ([1]; urine, cancer location Liver, selectivity test of Table 2, triplicate): 0.0067 and 0.0072 and 0.0056 | Results of absorbance analysis (increase in absorbance, 405 nm) ([2]; urine sample 21, healthy person): 0.000000 | Results of absorbance analysis (increase in absorbance, 405 nm) ([2]; urine sample 22, healthy person): 0.000000 | Results of absorbance analysis (increase in absorbance, 405 nm) ([2]; urine sample 23, healthy person): 0.000000 | Results of absorbance analysis (increase in absorbance, 405 nm) ([2]; urine sample 24, healthy person): 0.000000 | Results of absorbance analysis (increase in absorbance, 405 nm) ([2]; urine sample 25, healthy person): 0.000000 | Results of absorbance analysis (increase in absorbance, 405 nm) ([2]; urine sample 26, healthy person): 0.000000 | Results of absorbance analysis (increase in absorbance, 405 nm) ([2]; urine sample 27, healthy person): 0.000000 | Results of absorbance analysis (increase in absorbance, 405 nm) ([2]; urine sample 28, healthy person): 0.000000 | Results of absorbance analysis (increase in absorbance, 405 nm) ([2]; urine sample 29, healthy person): 0.000000 | Results of absorbance analysis (increase in absorbance, 405 nm) ([2]; urine sample 30, healthy person): 0.000000 | Results of absorbance analysis (increase in absorbance, 405 nm) ([2]; urine sample 31, healthy person): 0.000000 | Results of absorbance analysis (increase in absorbance, 405 nm) ([2]; urine sample 32, healthy person): 0.000000 | Results of absorbance analysis (increase in absorbance, 405 nm) ([2]; urine sample 33, healthy person): 0.000000 | Results of absorbance analysis (increase in absorbance, 405 nm) ([2]; urine sample 34, healthy person): 0.000000 | Results of absorbance analysis (increase in absorbance, 405 nm) ([2]; urine sample 35, healthy person): 0.000000 | Results of absorbance analysis (increase in absorbance, 405 nm) ([2]; urine sample 36, healthy person): 0.000000 | Results of absorbance analysis (increase in absorbance, 405 nm) ([2]; urine sample 37, healthy person): 0.000000 | Results of absorbance analysis (increase in absorbance, 405 nm) ([2]; urine sample 38, healthy person): 0.000000 | Results of absorbance analysis (increase in absorbance, 405 nm) ([2]; urine sample 39, healthy person): 0.000000 | Results of absorbance analysis (increase in absorbance, 405 nm) ([2]; urine sample 40, healthy person): 0.000000 | Increase in absorbance / hydrolysis in urine ([2]; urine samples 21 to 40 from healthy persons): does not lead to an increase in absorbance | Cleavage / increase in absorbance in urine of other cancers ([3]; testicular, intestine, kidney, prostate, pancreatic, bile duct, lung, ovarian and rectum cancer): is not subject to cleavage | Measurement 1-3 (increase in absorbance) ([3]; cancer location Intestine): 0 | Measurement 1-3 (increase in absorbance) ([3]; cancer location Kidney): 0 | Measurement 1-3 (increase in absorbance) ([3]; cancer location Lung): 0 | Measurement 1-3 (increase in absorbance) ([3]; cancer location Ovary): 0 | Measurement 1-3 (increase in absorbance) ([3]; cancer location Pancreas): 0 | Measurement 1-3 (increase in absorbance) ([3]; cancer location Prostate): 0 | Measurement 1-3 (increase in absorbance) ([3]; cancer location Rectum): 0 | Measurement 1-3 (increase in absorbance) ([3]; cancer location Testicle): 0 | Measurement 1-3 (increase in absorbance) ([3]; cancer location bile ducts): 0 | Cleavage products of the substrate (RP HPLC) [4]: cleaves into the peptide fragment ABZ-Lys-Ser-Ser-Asp-OH and the chromophore group of the compound (ANB-NH2) | Dependence of hydrolysis level on pH [5]: maximum activity at alkaline pH
